The results in this text go back to patent US20260116920A1, “HUMAN TRANSFERRIN RECEPTOR BINDING PEPTIDE” (PEPTIDREAM INC., priority 2021, published 2026).

Each structure is given as a SMILES string. Positions of bridges follow the written chain, without caps; N, C: chain ends. Non-standard residues stand in square brackets, D forms with d. Residues, ends and D or L forms follow the SMILES beside them. *: point of attachment. Trp(1-CH2COOH) = N[C@@H](Cc1cn(CC(=O)O)c2ccccc12)C(=O)O; Nle(6-morpholino) = N[C@@H](CCCCN1CCOCC1)C(=O)O; Phe(3-COOH) = N[C@@H](Cc1cccc(C(=O)O)c1)C(=O)O; Trp(7-aza) = N[C@@H](Cc1c[nH]c2ncccc12)C(=O)O; NH(CH2CH2O)8Me = COCCOCCOCCOCCOCCOCCOCCOCCN*; NMePhe(3-Cl) = CN[C@@H](Cc1cccc(Cl)c1)C(=O)O; 3Pal(6-NH2) = Nc1ccc(C[C@H](N)C(=O)O)cn1; NMeY = CN[C@@H](Cc1ccc(O)cc1)C(=O)O; PEG4 = NCCOCCOCCOCCOCCC(=O)O; Carboxymethyl = O=C(O)C*

In general, Kd refers to the constant that tells how readily two partners part at equilibrium.

For the test, the target named is T1, human transferrin receptor (hTfR) (Homo sapiens, UniProt P02786).
T1 construct: made in house
T1 sequence (P02786 89-760 limits assumed): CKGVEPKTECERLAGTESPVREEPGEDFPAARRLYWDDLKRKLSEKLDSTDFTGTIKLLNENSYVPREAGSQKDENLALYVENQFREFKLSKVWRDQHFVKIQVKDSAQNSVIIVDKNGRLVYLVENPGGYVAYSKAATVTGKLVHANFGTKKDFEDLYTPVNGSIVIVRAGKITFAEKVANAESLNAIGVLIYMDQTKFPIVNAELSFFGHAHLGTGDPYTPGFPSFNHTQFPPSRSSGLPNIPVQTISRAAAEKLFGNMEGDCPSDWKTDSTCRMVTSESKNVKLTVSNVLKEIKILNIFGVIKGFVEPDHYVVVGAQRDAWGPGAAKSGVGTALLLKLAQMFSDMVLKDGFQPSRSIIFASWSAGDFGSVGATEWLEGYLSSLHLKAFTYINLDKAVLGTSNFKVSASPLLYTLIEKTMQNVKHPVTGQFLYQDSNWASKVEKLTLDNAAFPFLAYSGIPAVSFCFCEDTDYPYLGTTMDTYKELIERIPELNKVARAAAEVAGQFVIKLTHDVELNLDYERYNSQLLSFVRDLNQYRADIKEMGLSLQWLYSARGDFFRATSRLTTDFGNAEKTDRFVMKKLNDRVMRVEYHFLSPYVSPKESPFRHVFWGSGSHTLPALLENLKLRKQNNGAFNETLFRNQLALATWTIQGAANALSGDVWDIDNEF
The test can be described thus: Evaluation of molecular interaction between transferrin receptor (hTfR) and peptide using surface plasmon resonance (SPR). It is filed as binding. The conditions noted are these: peptide with linker, surface plasmon resonance; read-out: SPR (KD class for binding to hTfR). An outline of the steps: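 KD values are derived by least-squares fitting of single-cycle kinetic sensorgrams. Peptide series (5–100 nM) flows over recombinant hTfR dimer immobilized on a Ni-NTA chip by EDC/NHS coupling, in pH 8.0 HEPES buffer containing 0.1% BSA and 1.0% DMSO.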
A general note: SPR reads the build-up and loss of mass on a sensor chip optically.
With `CC[C@H](C)[C@@H]1NC(=O)[C@H](Cc2ccc(OCC(=O)O)cc2)NC(=O)[C@H](Cc2ccc(N)nc2)NC(=O)[C@H](CC(N)=O)NC(=O)[C@H](Cc2c[nH]c3ccccc23)NC(=O)[C@H](C(C)C)NC(=O)[C@H](Cc2cccc(Cl)c2)N(C)C(=O)[C@H](C(C)C)NC(=O)[C@H](C)NC(=O)CSC[C@@H](C(=O)NCCOCCOCCOCCOCCC(N)=O)NC(=O)[C@H](Cc2ccc(O)cc2)N(C)C(=O)[C@H](Cc2cccc(C(=O)O)c2)NC(=O)[C@H](CCCNC(=N)N)NC(=O)[C@H](CCC(=O)NCCOCCOCCOCCOCCOCCOCCOCCOC)NC(=O)[C@H]([C@@H](C)CC)NC1=O` [compound 238] ({CH2CO}-AV[NMePhe(3-Cl)]VWN[3Pal(6-NH2)]Y(Carboxymethyl)IIE(NH(CH2CH2O)8Me)R[Phe(3-COOH)][NMeY]C[PEG4]-NH2; thioether N-15), the Kd fell in the range of 1 to 100 nM.
Under `CC[C@H](C)[C@@H]1NC(=O)[C@H](Cc2ccc(OCC(=O)O)cc2)NC(=O)[C@H](Cc2ccc(N)nc2)NC(=O)[C@H](CC(N)=O)NC(=O)[C@H](Cc2c[nH]c3ncccc23)NC(=O)[C@H](C(C)C)NC(=O)[C@H](Cc2cccc(Cl)c2)N(C)C(=O)[C@H](C(C)C)NC(=O)[C@H](C)NC(=O)CSC[C@@H](C(=O)NCCOCCOCCOCCOCCC(N)=O)NC(=O)[C@H](Cc2ccc(O)cc2)N(C)C(=O)[C@H](Cc2cccc(C(=O)O)c2)NC(=O)[C@H](CCCNC(=N)N)NC(=O)[C@H](CCC(=O)NCCOCCOCCOCCOCCOCCOCCOCCOC)NC(=O)[C@H]([C@@H](C)CC)NC1=O` [compound 239] ({CH2CO}-AV[NMePhe(3-Cl)]V[Trp(7-aza)]N[3Pal(6-NH2)]Y(Carboxymethyl)IIE(NH(CH2CH2O)8Me)R[Phe(3-COOH)][NMeY]C[PEG4]-NH2; thioether N-15) stands 1 to 100 nM; under `CC[C@H](C)[C@@H]1NC(=O)[C@H](Cc2ccc(OCC(=O)O)cc2)NC(=O)[C@H](Cc2ccc(O)cc2)NC(=O)[C@H](CC(N)=O)NC(=O)[C@H](Cc2cn(CC(=O)O)c3ccccc23)NC(=O)[C@H](C(C)C)NC(=O)[C@H](Cc2cccc(Cl)c2)N(C)C(=O)[C@H](C(C)C)NC(=O)[C@H](C)NC(=O)CSC[C@@H](C(=O)NCCOCCOCCOCCOCCC(N)=O)NC(=O)[C@H](Cc2ccc(O)cc2)N(C)C(=O)[C@H](Cc2cccc(C(=O)O)c2)NC(=O)[C@H](CCCCN2CCOCC2)NC(=O)[C@H](CCCCN2CCOCC2)NC(=O)[C@H]([C@@H](C)CC)NC1=O` [compound 240] ({CH2CO}-AV[NMePhe(3-Cl)]V[Trp(1-CH2COOH)]NYY(Carboxymethyl)II[Nle(6-morpholino)][Nle(6-morpholino)][Phe(3-COOH)][NMeY]C[PEG4]-NH2; thioether N-15), 1 to 100 nM.
Regarding `CC[C@H](C)[C@@H]1NC(=O)[C@H](Cc2ccc(O)cc2)NC(=O)[C@H](Cc2ccc(O)cc2)NC(=O)[C@H](CC(N)=O)NC(=O)[C@H](Cc2c[nH]c3ccccc23)N(C)C(=O)[C@H](C(C)C)NC(=O)[C@H](Cc2ccccc2)N(C)C(=O)[C@H](C(C)C)NC(=O)[C@H](C)NC(=O)CSC[C@@H](C(=O)NCC(=O)N[C@H](CCC(=O)O)C(=O)N[C@H](CCC(=O)O)C(=O)N[C@H](CCC(=O)O)C(=O)N[C@H](CO)C(=O)N[C@H](CO)C(=O)N[C@@H](CCCCN=[N+]=[N-])C(N)=O)NC(=O)[C@H](Cc2ccc(O)cc2)N(C)C(=O)[C@H](Cc2ccc(O)cc2)NC(=O)[C@H](CCCNC(=N)N)NC(=O)[C@H](CCCCN)NC(=O)[C@H]([C@@H](C)CC)NC1=O` [compound 241], the Kd was 1 to 100 nM.
